From patent EP0318767A2, “Esters of pharmacologically active carboxylic acids splittable under physiological conditions” (F. HOFFMANN-LA ROCHE AG, priority 1987, dated 1989)

Assays:
Escherichia coli 25922 = experiment: Experimental septicaemia in mice, oral antimicrobial efficacy; type: in vivo; conditions: Albino mice 16-20 g infected i.p. with Escherichia coli 25922, ester given orally in Tween 80 (4%) 1 and 3 h after infection, dose protecting 50% of animals, survival 4 days after infection, probit method; for ED50: read-out: ED₅₀ in mg/kg p.o.
Text: Die perorale antimikrobielle Wirksamkeit der erfindungsgemässen Ester von antibiotisch wirksamen Carbonsäuren kann beispielsweise im nachfolgend beschriebenen Tierversuch nachgewiesen werden:
(§1) Man verursacht eine experimentelle Septikämie in 16-20 g schweren Albinomäusen, indem man den Versuchstieren eine Probe einer verdünnten Kultur des Testorganismus, Escherichia coli 25922, welche über Nacht gewachsen ist. intraperitoneal injiziert. Die verabreichte Probe wird dabei so bemessen, dass die verabreichte Dosis etwa 10-20 mal grösser ist, als die Dosis, welche benötigt wird um 50% der unbehandelten Versuchstiere innerhalb von 48 Stunden zu töten. Die Bakterien wurden als Suspension in Kulturbrühe injiziert. Sowohl für die Kontrolle als auch für die Behandlung wurden für jede getestete Dosis Gruppen zu je 5 Versuchstieren verwendet. Die erfindungsgemässen Ester wurden oral verabreicht, und zwar als Lösung in Tween 80 (4%), wobei die Konzentrationen so gewählt wurden, dass jedes Versuchstier 500 µl erhielt. Die Behandlungen erfolgten 1 und 3 Stunden nach der Infektion. Die ED₅₀ ist diejenige Dosis, welche 50% der Versuchstiere schützt, und wurde ausgehend von der Ueberlebensrate nach 4 Tagen nach der Infektion mittels der Probitmethode berechnet. In der nachfolgenden Tabelle sind die ED₅₀-Werte in mg/kg p.o. für Vertreter der erfindungsgemassen Stoffklasse angegeben. Die Tabelle enthält ausserdem Angaben über die akute Toxizität der erfindungsgemässen Ester bei einmaliger oraler Verabreichung an Mäusen. Tabelle

Mäusen = experiment: Acute toxicity after a single oral administration to mice; type: in vivo
Text: as §1

Row | Structure (SMILES) | ED₅₀ in mg/kg p.o. (Escherichia coli 25922) | DL₅₀ in mg/kg p.o. (Mäusen) | ED50 (Escherichia coli 25922)
1 | C/C=C(\COC(=O)C1=C(C)CS[C@@H]2[C@H](NC(=O)/C(=N\OC)c3csc(N)n3)C(=O)N12)C(=O)OCC [Verbindung C, (E)-2-(Aethoxycarbonyl)-2-butenyl (6R,7R)-7-[(Z)-2-(2-amino-4-thiazolyl)-2-(methoxyimino)acetamido]-3-methyl-8-oxo-5-thia-azabicyclo[4.2.0]oct-2-en-2-carboxylat] | 0,89 mg/kg | >5000 mg/kg | –
2 | CC/C=C(\COC(=O)C1=C(C)CS[C@@H]2[C@H](NC(=O)/C(=N\OC)c3csc(N)n3)C(=O)N12)C(=O)OCC(C)C [Verbindung B, (E)-2-(Isobutoxycarbonyl)-2-pentenyl (6R,7R)-7-[(Z)-2-(2-amino-4-thiazolyl)-2-(methoxyimino)acetamido]-3-methyl-8-oxo-5-thia-1-azabicyclo[4.2.0]oct-2-en-2-carboxylat] | – | – | 1.4 mg/kg
3 | CC/C=C(\COC(=O)C1=C(CN=[N+]=[N-])CS[C@@H]2[C@H](NC(=O)/C(=N\OC)c3csc(N)n3)C(=O)N12)C(=O)OCC(C)C [Verbindung A, (E)-2-(Isobutoxycarbonyl)-2-pentenyl (6R,7R)-7-[(Z)-2-(2-amino-4-thiazolyl)-2-(methoxyimino)acetamido]-3-(azidomethyl)-8-oxo-5-thia-1-azabicyclo[4.2.0]oct-2-en-2-carboxylat] | – | >5000 mg/kg | 0.28 mg/kg
